Patent US10513519B2, “Solid forms of (1S,4S)-4-(2-(((3S,4R)-3-fluorotetrahydro-2H-pyran-4-yl)amino)-8-((2,4,6-trichlorophenyl)amino)-9H-purin-9-yl)-1-methylcyclohexane-1-carboxamide and methods of their use” (Signal Pharmaceuticals, LLC, priority 2016, dated 2019)

System: cancer cell lines
Assay: Multiplexed cytotoxicity assay: cell proliferation (relative cell count IC50, GI50)
Format: cell-based
Details: Homo sapiens
Experimental: (§1) Cells are grown in RPMI1640, 10% FBS, 2 mM L-alanyl-L-Glutamine, 1 mM Na pyruvate or a special medium in a humidified atmosphere of 5% CO2 at 37° C. Cells are seeded into 384-well plates and incubated in a humidified atmosphere of 5% CO2 at 37° C. Compounds are added 24 h post cell seeding. At the same time, a time zero untreated cell plate is generated. After a 72 hour incubation period, cells are fixed and stained with fluorescently labeled antibodies and nuclear dye to allow visualization of nuclei, apoptotic cells and mitotic cells. Apoptotic cells are detected using an anti-active caspase-3 antibody. Mitotic cells are detected using an anti phospho-histone-3 antibody. Compounds are serially diluted 3.16-fold and assayed over 10 concentrations in a final assay concentration of 0.1% DMSO from the highest test concentration of 10 μM. Automated fluorescence microscopy was carried out using a Molecular Devices ImageXpress Micro XL high-content imager, and images are collected with a 4× objective.
(§2) Sixteen-bit TIFF images are acquired and analyzed with MetaXpress 5.1.0.41 software. Cell proliferation is measured by the signal intensity of the incorporated nuclear dye. The cell proliferation assay output is referred to as the relative cell count. To determine the cell proliferation end point, the cell proliferation data output is transformed to percentage of control (POC) using the following formula: POC=relative cell count(compound wells)/relative cell count(vehicle wells)×100
(§3) GI50 is the concentration needed to reduce the observed growth by half. This is the concentration that inhibits the growth to the level midway between growth in untreated cells and the number of cells seeded in the well (Time zero value). The IC50 values are calculated using nonlinear regression to fit data to a sigmoidal 4 point, 4 parameter One-Site dose response model, where: y(fit)=A+[(B−A)/(1+((C/x)^D))].
as §1, with “In another experiment, cells were grown” for “Cells are grown”, “Cells were” for “Cells are”, “Compounds were” for “Compounds are”, “plate was” for “plate is”, “cells were” for “cells are”, “images were” for “images are”
as §2, with “images were” for “images are”, “proliferation was” for “proliferation is”, “output was” for “output is”
as §3, with “GI50 refers to” for “GI50 is”, “This corresponds to” for “This is”, “values were” for “values are”

[1] = NCI-H446, 72 h, NCIH446, Lung, SCLC, 72 h
[2] = NCI-H460, 72 h, NCIH460, Lung, NSCLC, 72 h
[3] = NCI-H510A, 72 h, NCIH510A, Lung, SCLC
[4] = NCI-H520, 72 h, NCIH520, Lung, NSCLC, 72 h
[5] = NCI-H596, 72 h, NCIH596, Lung, NSCLC, 72 h
[6] = NCI-H661, 72 h, NCIH661, Lung, NSCLC, 72 h
[7] = NTERA-2-cl-D1, 72 h, NTERA2CLD1, Testis, 72 h
[8] = OE19, 72 h, OE19, Head and Neck, Esophageal, 72 h
[9] = OE33, 72 h, OE33, Head and Neck, Esophageal, 72 h
[10] = OVCAR-3, 72 h, OVCAR3, Female GU, Ovary, 72 h
[11] = PANC-1, 72 h, PANC1, Pancreas, 72 h
[12] = PSN1, 72 h, PSN1, Pancreas, 72 h
[13] = RL95-2, 72 h, RL952, Female GU, Uterus, 72 h
[14] = RPMI-6666, RPMI6666 (Hematopoietic and lymphoid, Lymphoma)
[15] = RPMI-7951, RPMI7951 (Skin, Melanoma)
[16] = RPMI-8226, 72 h, RPMI8226, Hematopoietic and lymphoid, Myeloma, 72 h
[17] = RS4-11, RS411 (Hematopoietic and lymphoid, Leukemia)
[18] = Raji, RAJI (Hematopoietic and lymphoid, Lymphoma)
[19] = Rec1, REC1 (Hematopoietic and lymphoid, Lymphoma)
[20] = SAOS-2, 72 h, SAOS2, Soft Tissue, Osteosarcoma, 72 h
[21] = SHP77, 72 h, SHP77, Lung, SCLC, 72 h
[22] = SJRH30, 72 h, SJRH30, Soft Tissue, Sarcoma, 72 h
[23] = SJSA-1, 72 h, SJSA1, Soft Tissue, Osteosarcoma, 72 h
[24] = SK-LMS-1, 72 h, SKLMS1, Soft Tissue, Sarcoma, 72 h
[25] = SK-MEL3, 72 h, SKMEL3, Skin, Melanoma, 72 h
[26] = SK-MEL-1, SKMEL1 (Skin, Melanoma)
[27] = SK-MEL-28, SKMEL28 (Skin, Melanoma)
[28] = SK-MES-1, 72 h, SKMES1, Lung, NSCLC, 72 h

SMILES: C[C@]1(C(N)=O)CC[C@@H](n2c(Nc3c(Cl)cc(Cl)cc3Cl)nc3cnc(N[C@@H]4CCOC[C@H]4F)nc32)CC1 [Compound 1, cis-4-[2-{[(3S,4R)-3-fluorooxan-4-yl]amino}-8-(2,4,6-trichloroanilino)-9H-purin-9-yl]-1-methylcyclohexane-1-carboxamide]
- IC50 (NCI-H441, 72 h, NCIH441, Lung, NSCLC, 72 h): 1250 nM
- GI50 [1]: 327 nM
- IC50 [1]: > 10000 nM
- GI50 [2]: > 10000 nM
- IC50 [2]: > 10000 nM
- GI50 (NCI-H508, NCIH508 (Colon)): 28.8 nM
- IC50 (NCI-H508, NCIH508 (Colon)): 48.1 nM
- GI50 [3]: 3700 nM
- IC50 [3]: 6610 nM
- GI50 [4]: 991 nM
- IC50 [4]: 2130 nM
- GI50 [5]: 2750 nM
- IC50 [5]: > 10000 nM
- GI50 [6]: 1440 nM
- IC50 [6]: 2640 nM
- GI50 (NCI-H747, NCIH747 (Colon)): 12 nM
- IC50 (NCI-H747, NCIH747 (Colon)): 44.5 nM
- GI50 [7]: 44 nM
- IC50 [7]: 50.7 nM
- GI50 [8]: 340 nM
- IC50 [8]: > 10000 nM
- GI50 [9]: 63 nM
- IC50 [9]: 96.9 nM
- GI50 [10]: > 10000 nM
- IC50 [10]: > 10000 nM
- GI50 [11]: 41.6 nM
- IC50 [11]: 80 nM
- GI50 (PFSK-1, PFSK1 (CNS, Glioma)): 23.4 nM
- IC50 (PFSK-1, PFSK1 (CNS, Glioma)): > 10000 nM
- GI50 [12]: 8.3 nM
- IC50 [12]: 9.2 nM
- GI50 (RKOE6, RKOE6 (Colon)): 75.3 nM
- IC50 (RKOE6, RKOE6 (Colon)): 107 nM
- GI50 [13]: 9 nM
- IC50 [13]: 59.9 nM
- GI50 [14]: 80.1 nM
- IC50 [14]: 370 nM
- GI50 [15]: 71.6 nM
- IC50 [15]: 94.5 nM
- GI50 [16]: 1090 nM
- IC50 [16]: 2480 nM
- GI50 [17]: 359 nM
- IC50 [17]: 2960 nM
- GI50 [18]: 179 nM
- IC50 [18]: > 10000 nM
- GI50 [19]: 5.3 nM
- IC50 [19]: 193 nM
- GI50 [20]: 3570 nM
- IC50 [20]: 6880 nM
- GI50 (SCC-4, SCC4 (Head and Neck)): 51.2 nM
- IC50 (SCC-4, SCC4 (Head and Neck)): 108 nM
- GI50 (SCC-9, SCC9 (Head and Neck)): 117 nM
- IC50 (SCC-9, SCC9 (Head and Neck)): 280 nM
- GI50 (SCC-25, SCC25 (Head and Neck)): 43.9 nM
- IC50 (SCC-25, SCC25 (Head and Neck)): 51 nM
- GI50 (SCaBER, SCABER (Bladder)): 66.5 nM
- IC50 (SCaBER, SCABER (Bladder)): 77.2 nM
- GI50 [21]: 4790 nM
- IC50 [21]: 5820 nM
- GI50 [22]: 219 nM
- IC50 [22]: 1470 nM
- GI50 [23]: 1160 nM
- IC50 [23]: 2460 nM
- GI50 (SK-BR-3, SKBR3 (Breast)): 6810 nM
- IC50 (SK-BR-3, SKBR3 (Breast)): 8450 nM
- GI50 [24]: 146 nM
- IC50 [24]: 166 nM
- GI50 [25]: 28.4 nM
- IC50 [25]: 62.5 nM
- GI50 [26]: 1 nM
- IC50 [26]: 29.1 nM
- GI50 [27]: 27.9 nM
- IC50 [27]: 57.1 nM
- GI50 [28]: 103 nM
- IC50 [28]: 122 nM
